Measurements: patent US11130768B2, “Bicyclic pyrazole derivatives” (Bayer Animal Health GMBH, priority 2017, dated 2021)

Tests used:
[1] = system: Nippostrongylus brasiliensis; assay: In Vitro Assay 2: Nippostrongylus brasiliensis (NIPOBR), acetylcholine esterase readout; conditions: adult worms, read-out: activity (reduction of AChE compared to negative control); for inhibition at 1 µg/mL: 1 μg/ml (1 ppm); for inhibition at 10 µg/mL: 10 μg/ml (10 ppm)
Procedure: In Vitro Assay 2: Nippostrongylus brasiliensis (NIPOBR)
Adult Nippostrongylus brasiliensis were washed with saline buffer containing 100 U/ml penicillin, 0.1 mg/ml streptomycin and 2.5 μg/ml amphotericin B. Test compounds were dissolved in DMSO and worms were incubated in medium in a final concentration of 10 μg/ml (10 ppm) respectively 1 μg/ml (1 ppm). An aliquot of the medium was used to determine the acetylcholine esterase activity in comparison to a negative control. The principle of measuring acetylcholine esterase as readout for anthelmintic activity was described in Rapson et al (1986) and Rapson et al (1987).

[2] = system: Dirofilaria immitis microfilariae; assay: In Vitro Assay 3: Dirofilaria immitis microfilariae (DIROIM L1), motility; conditions: 72 h, read-out: EC50 (reduction of motility)
Haemonchus contortus = conditions: 120 h, read-out: activity (larval mortality)
Procedure: Solvent: dimethyl sulfoxide
Approximately 40 larvae of the red stomach worm (Haemonchus contortus) are transferred into a test tube containing compound solution.
After 5 days the percentage of larval mortality is recorded. 100% efficacy means all larvae are killed, 0% efficacy means no larvae are killed.

C. elegans Slo-1a = C. elegans Slo-1a (Caenorhabditis elegans, UniProt Q95V25)
C. elegans Slo-1a, sequence (Q95V25 whole entry): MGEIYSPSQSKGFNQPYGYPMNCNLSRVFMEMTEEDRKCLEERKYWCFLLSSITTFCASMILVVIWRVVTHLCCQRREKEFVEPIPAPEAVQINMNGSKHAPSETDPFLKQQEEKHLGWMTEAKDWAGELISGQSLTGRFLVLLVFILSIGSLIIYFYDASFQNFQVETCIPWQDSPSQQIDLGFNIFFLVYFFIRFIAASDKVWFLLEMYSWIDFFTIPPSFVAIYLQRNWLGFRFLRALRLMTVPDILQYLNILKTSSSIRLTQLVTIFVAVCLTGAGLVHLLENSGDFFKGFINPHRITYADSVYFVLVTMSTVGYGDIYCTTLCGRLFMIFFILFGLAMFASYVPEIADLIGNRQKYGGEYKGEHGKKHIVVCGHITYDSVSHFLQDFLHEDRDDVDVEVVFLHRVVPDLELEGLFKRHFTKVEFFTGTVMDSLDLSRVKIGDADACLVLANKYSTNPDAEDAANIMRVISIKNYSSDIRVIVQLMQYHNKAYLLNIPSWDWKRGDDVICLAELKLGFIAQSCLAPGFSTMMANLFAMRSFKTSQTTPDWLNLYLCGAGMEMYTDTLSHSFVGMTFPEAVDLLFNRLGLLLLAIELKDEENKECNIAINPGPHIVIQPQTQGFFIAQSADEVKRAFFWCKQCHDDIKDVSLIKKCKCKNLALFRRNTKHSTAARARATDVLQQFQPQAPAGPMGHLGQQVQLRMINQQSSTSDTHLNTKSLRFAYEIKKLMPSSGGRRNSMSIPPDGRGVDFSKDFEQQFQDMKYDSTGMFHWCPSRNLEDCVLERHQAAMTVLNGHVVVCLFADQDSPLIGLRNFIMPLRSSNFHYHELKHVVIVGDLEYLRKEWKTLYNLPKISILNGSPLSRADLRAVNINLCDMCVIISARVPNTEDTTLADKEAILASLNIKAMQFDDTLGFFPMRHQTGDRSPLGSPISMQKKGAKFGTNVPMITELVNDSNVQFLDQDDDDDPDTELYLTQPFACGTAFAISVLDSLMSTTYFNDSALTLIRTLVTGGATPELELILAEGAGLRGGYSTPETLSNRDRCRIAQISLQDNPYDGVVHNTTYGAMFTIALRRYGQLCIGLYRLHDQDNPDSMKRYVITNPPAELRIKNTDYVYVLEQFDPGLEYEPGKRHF
Procedure: In Vitro Assay 1: C. elegans Slo-1a—Action at a Recombinant C. elegans Cell Line
Generation of a Stable C. elegans CHO Cell Line
A CHO cell line was obtained from ATCC, code ATCC CRL-9096. For transfection with plasmid DNA to express C. elegans Slo-1a (accession number AAL28102) CHO cells were passaged to 40% confluence before adding the transfection solution to the cell culture. The transfection solution included 300 μL OptiMEM (Life Technologies, Nr.: 31985), 2 μL (=6 μg) of plasmid DNA containing the C. elegans Slo 1a gene and 9 μL FugeneHD (Promega, Nr.: E2311), and was added to the cells prior to incubation for 48 hours at 37° C., 5% CO2. The transfection medium was exchanged for the selection medium which contains additional G418 (2 mg/ml, Invitrogen, Nr.: 10131) and the cells were seeded into 384 well plates (300 cells/well). After a few weeks, the remaining surviving cells were tested with a voltage sensitive dye (Membrane Potential Assay Kit, Molecular Devices Nr.: R8034) for K+ channel expression. Positive cell clones were purified by the limited dilution technique. For this the clone with the highest and most robust signal in the voltage sensitive dye assay was further subcloned (incubated) in 384 well plates (0.7 cells/well) in order to obtain clonal purity. This generated a final stable CHO cell line expressing the C. elegans Slo-1a.
Cells were cultured at 37° C. and 5% CO2 in MEMalpha with Gutamax I (Invitrogen, Nr.: 32571), supplemented with 10% (v/v) heat inactivated fetal bovine serum (Invitrogen, Nr.: 10500), G418 (1 mg/ml, Invitrogen, Nr.: 10131). Cells were detached using Accutase (Sigma, Nr.: A6964).
Membrane Potential Measurements
Laboratory compound testing was performed on 384-well microtiter plates (MTPs, Greiner, Nr.: 781092). 8000 cells/well were plated onto 384-well MTPs and cultured for 20 to 24 hours at 37° C. and 5% CO2. After removal of the cell culture medium, the cells were washed once with tyrode (150 mM NaCl, 0.3 mM KCl, 2 mM CaCl2, 1 mM MgCl2, 0.8 mM NaH2PO4, 5 mM Glucose, 28 mM Hepes, pH 7.4) and then loaded with the voltage sensitive dye of the Membrane Potential Assay Kit diluted in tyrode for 1 h at room temperature.
After starting the measurement of fluorescence using a FLIPR Tetra (Molecular Devices, Exc. 510-545 nm, Emm. 565-625 nm), test compounds were added followed by the addition of KCl tyrode (final assay concentration: 70 mM KCl, 2 mM CaCl2, 1 mM MgCl2, 0.8 mM NaH2PO4, 5 mM Glucose, 28 mM Hepes, pH 7.4, including the voltage sensitive dye). The measurement was completed after 7 minutes.
The data were evaluated by using the ActivityBase XLfit software (IDBS) for curve fitting and calculation of the half-maximal effective concentration (EC50) and are reported as negative decadic logarithm (pE50).

Cooperia curticei = conditions: 120 h, read-out: activity (larval mortality)
Procedure: In Vitro Assay 6: Cooperia curticei (COOPCU L3)
Solvent: dimethyl sulfoxide
Approximately 40 nematode larvae (Cooperia curticei) are transferred into a test tube containing the compound solution.
After 5 days percentage of larval mortality is recorded. 100% efficacy means all larvae are killed; 0% efficacy means no larvae are killed.

Compound	inhibition at 1 µg/mL [1] [%]	inhibition at 10 µg/mL [1] [%]	EC50 [2] [mg/L]	mortality at 20 ppm (Haemonchus contortus) [%]	EC50 (C. elegans Slo-1a) [nM]	mortality at 20 ppm (Cooperia curticei) [%]
Cc1nn2c(C(C)C)c(C(=O)N[C@H]3CCOc4ccccc43)sc2c1-c1cc(Cl)cc(Cl)c1 [Example 1, 7-(3,5-dichlorophenyl)-N-[(4S)-3,4-dihydro-2H-chromen-4-yl]-3-isopropyl-6-methylpyrazolo[5,1-b][1,3]thiazole-2-carboxamide]	> 80	> 80	< 0.1	90	3.16 to 31.6	
Cc1nn2c(C(C)C)c(C(=O)N[C@H]3CCOc4ccccc43)sc2c1-c1cccc(Cl)c1Cl [Example 2, 7-(2,3-dichlorophenyl)-N-[(4S)-3,4-dihydro-2H-chromen-4-yl]-6-methyl-3-(propan-2-yl)pyrazolo[5,1-b][1,3]thiazole-2-carboxamide]		> 80	< 0.1		< 3.16	90
Cc1nn2c(C(C)C)c(C(=O)N[C@H]3CCOc4ccccc43)sc2c1-c1cccc(C(F)(F)F)c1F [Example 3, 7-[2-fluoro-3-(trifluoromethyl)phenyl]-N-[(4S)-3,4-dihydro-2H-chromen-4-yl]-6-methyl-3-(propan-2-yl)pyrazolo[5,1-b][1,3]thiazole-2-carboxamide]		> 80	< 0.1	90	< 3.16	90
Cc1nn2c(C(C)C)c(C(=O)N[C@H]3CCOc4ccccc43)sc2c1-c1cccc(OC(F)(F)F)c1F [Example 4, N-[(4S)-3,4-dihydro-2H-chromen-4-yl]-7-[2-fluoro-3-(trifluoromethoxy)phenyl]-3-isopropyl-6-methylpyrazolo[5,1-b][1,3]thiazole-2-carboxamide]		> 80	< 0.1	80	< 3.16	80
Cc1nn2c(C(C)C)c(C(=O)N[C@H]3CCOc4ccccc43)sc2c1-c1cc(Cl)c(F)c(Cl)c1 [Example 5, 7-(3,5-dichloro-4-fluorophenyl)-N-[(4S)-3,4-dihydro-2H-chromen-4-yl]-3-isopropyl-6-methylpyrazolo[5,1-b][1,3]thiazole-2-carboxamide]	> 80	> 80	< 0.1		< 3.16	90
Cc1nn2c(C(C)C)c(C(=O)N[C@H]3CCOc4ccccc43)sc2c1-c1ccc(F)c(N(C)C)c1F [Example 6, N-[(4S)-3,4-dihydro-2H-chromen-4-yl]-7-[3-(dimethylamino)-2,4-difluorophenyl]-6-methyl-3-(propan-2-yl)pyrazolo[5,1-b][1,3]thiazole-2-carboxamide]	> 80	> 80	< 0.1		< 3.16	90
Cc1nn2c(C(C)C)c(C(=O)N[C@H]3CCOc4ccccc43)sc2c1-c1ccc(Cl)c(Cl)c1 [Example 7, 7-(3,4-dichlorophenyl)-N-[(4S)-3,4-dihydro-2H-chromen-4-yl]-6-methyl-3-(propan-2-yl)pyrazolo[5,1-b][1,3]thiazole-2-carboxamide]		> 80	< 0.1		3.16 to 31.6	
Cc1nn2c(C(C)C)c(C(=O)N[C@H]3CCOc4ccccc43)sc2c1-c1ccc(F)c(F)c1 [Example 8, 7-(3,4-difluorophenyl)-N-[(4S)-3,4-dihydro-2H-chromen-4-yl]-6-methyl-3-(propan-2-yl)pyrazolo[5,1-b][1,3]thiazole-2-carboxamide]			< 0.1		3.16 to 31.6	
Cc1nn2c(C(C)C)c(C(=O)N[C@H]3CCOc4ccccc43)sc2c1-c1ccc(F)c(F)c1F [Example 9]			< 0.1		3.16 to 31.6	90
Cc1nn2c(C(C)C)c(C(=O)N[C@H]3CCOc4ccccc43)sc2c1-c1c(Cl)cccc1Cl [Example 10, 7-(2,6-dichlorophenyl)-N-[(4S)-3,4-dihydro-2H-chromen-4-yl]-6-methyl-3-(propan-2-yl)pyrazolo[5,1-b][1,3]thiazole-2-carboxamide]			< 0.1		< 3.16	
Cc1nn2c(C(C)C)c(C(=O)N[C@H]3CCOc4ccccc43)sc2c1-c1cccc(C(F)(F)F)c1Cl [Example 11, 7-[2-chloro-3-(trifluoromethyl)phenyl]-N-[(4S)-3,4-dihydro-2H-chromen-4-yl]-6-methyl-3-(propan-2-yl)pyrazolo[5,1-b][1,3]thiazole-2-carboxamide]			< 0.1	90	< 3.16	100
Cc1nn2c(C(C)C)c(C(=O)N[C@H]3CCOc4ccccc43)sc2c1-c1cc(Cl)cc(Cl)c1Cl [Example 12, N-[(4S)-3,4-dihydro-2H-chromen-4-yl]-6-methyl-3-(propan-2-yl)-7-(2,3,5-trichlorophenyl)pyrazolo[5,1-b][1,3]thiazole-2-carboxamide]			< 0.1	80	< 3.16	100
Cc1nn2c(C(C)C)c(C(=O)N[C@H]3CCOc4ccccc43)sc2c1-c1cccc(N(C)C)c1F [Example 13, N-[(4S)-3,4-dihydro-2H-chromen-4-yl]-7-[3-(dimethylamino)-2-fluorophenyl]-6-methyl-3-(propan-2-yl)pyrazolo[5,1-b][1,3]thiazole-2-carboxamide]	> 80		< 0.1		< 3.16	90
Cc1nn2c(C(C)C)c(C(=O)N[C@H]3CCc4ccccc43)sc2c1-c1cc(Cl)c(F)c(Cl)c1 [Example 14, 7-(3,5-dichloro-4-fluorophenyl)-N-[(1S)-2,3-dihydro-1H-inden-1-yl]-6-methyl-3-(propan-2-yl)pyrazolo[5,1-b][1,3]thiazole-2-carboxamide]	> 80	> 80	< 0.1		3.16 to 31.6	
Cc1nn2c(C(C)C)c(C(=O)N[C@H]3CCc4ccccc43)sc2c1-c1cccc(Cl)c1Cl [Example 15, 7-(2,3-dichlorophenyl)-N-[(1S)-2,3-dihydro-1H-inden-1-yl]-6-methyl-3-(propan-2-yl)pyrazolo[5,1-b][1,3]thiazole-2-carboxamide]			< 0.1		< 3.16	
